Reference: publication PMC9995911, “Lipid environment determines the drug-stimulated ATPase activity of P-glycoprotein” (Frontiers in Molecular Biosciences, 2023)

How the values were obtained:
Pgp = target: T1, Pgp (Mus musculus, UniProt P21447); test: Thermostability of purified Pgp in detergent solution (CPM dye fluorescence on heating); conditions: Pgp purified in 0.05% DDM containing 0.01% CHS (DDM/CHS); Pgp in DDM alone ~40 °C
T1 construct: made in house; host or cells: Pichia pastoris
Experimental: Figure S1: CHS increases the thermostability of purified Pgp in DDM detergent solution.
Pgp was purified from microsomal membranes as detailed in Methods in either 0.05% DDM or 0.05% DDM containing 0.01% CHS (DDM/CHS). Samples were incubated with 2 µM of the cysteine-reactive dye 7-Diethylamino-3-(4'-maleimidylphenyl)-4-methylcoumarin (CPM), and the increase in fluorescence upon heating the samples with a temperature ramp of 1 °C/min was monitored with excitation/ emission wavelengths of 384/470 nm. Increase in fluorescence is due to protein unfolding and exposure of reactive cysteines in Pgp. The melting temperature Tm was ~40 °C for Pgp in DDM solution, similar to that reported for Pgp by other methods (Yang et al., […]
2017). […] Representatives of three independent experiments are shown.
(1 picture or pasted object on this page, not shown here)

Mouse mdr1a Pgp = target: T2, Mouse mdr1a Pgp (Mus musculus, UniProt P21447); test: Verapamil-stimulated ATPase activity of purified Pgp in DDM detergent activated with lipids (detergent-lipid micelles); type: biochemical; conditions: ATPase in the absence of verapamil; Pgp in DDM activated with 1% of the named lipid (Table 2)
T2 construct: made in house; host or cells: Pichia pastoris
Experimental: All purification buffers contained 50 mM Tris pH 8, 10% glycerol, and 500 mM NaCl (Buffer A). Detergent concentrations were reduced to 0.05% DDM during chromatography. Pgp was eluted from the Strep-Tactin superflow resin (Qiagen, Valencia, CA) in the presence of 1 mM DTT, 1 mM TCEP by competition with 4 mM desthiobiotin.

T2 sequence (P21447 whole entry): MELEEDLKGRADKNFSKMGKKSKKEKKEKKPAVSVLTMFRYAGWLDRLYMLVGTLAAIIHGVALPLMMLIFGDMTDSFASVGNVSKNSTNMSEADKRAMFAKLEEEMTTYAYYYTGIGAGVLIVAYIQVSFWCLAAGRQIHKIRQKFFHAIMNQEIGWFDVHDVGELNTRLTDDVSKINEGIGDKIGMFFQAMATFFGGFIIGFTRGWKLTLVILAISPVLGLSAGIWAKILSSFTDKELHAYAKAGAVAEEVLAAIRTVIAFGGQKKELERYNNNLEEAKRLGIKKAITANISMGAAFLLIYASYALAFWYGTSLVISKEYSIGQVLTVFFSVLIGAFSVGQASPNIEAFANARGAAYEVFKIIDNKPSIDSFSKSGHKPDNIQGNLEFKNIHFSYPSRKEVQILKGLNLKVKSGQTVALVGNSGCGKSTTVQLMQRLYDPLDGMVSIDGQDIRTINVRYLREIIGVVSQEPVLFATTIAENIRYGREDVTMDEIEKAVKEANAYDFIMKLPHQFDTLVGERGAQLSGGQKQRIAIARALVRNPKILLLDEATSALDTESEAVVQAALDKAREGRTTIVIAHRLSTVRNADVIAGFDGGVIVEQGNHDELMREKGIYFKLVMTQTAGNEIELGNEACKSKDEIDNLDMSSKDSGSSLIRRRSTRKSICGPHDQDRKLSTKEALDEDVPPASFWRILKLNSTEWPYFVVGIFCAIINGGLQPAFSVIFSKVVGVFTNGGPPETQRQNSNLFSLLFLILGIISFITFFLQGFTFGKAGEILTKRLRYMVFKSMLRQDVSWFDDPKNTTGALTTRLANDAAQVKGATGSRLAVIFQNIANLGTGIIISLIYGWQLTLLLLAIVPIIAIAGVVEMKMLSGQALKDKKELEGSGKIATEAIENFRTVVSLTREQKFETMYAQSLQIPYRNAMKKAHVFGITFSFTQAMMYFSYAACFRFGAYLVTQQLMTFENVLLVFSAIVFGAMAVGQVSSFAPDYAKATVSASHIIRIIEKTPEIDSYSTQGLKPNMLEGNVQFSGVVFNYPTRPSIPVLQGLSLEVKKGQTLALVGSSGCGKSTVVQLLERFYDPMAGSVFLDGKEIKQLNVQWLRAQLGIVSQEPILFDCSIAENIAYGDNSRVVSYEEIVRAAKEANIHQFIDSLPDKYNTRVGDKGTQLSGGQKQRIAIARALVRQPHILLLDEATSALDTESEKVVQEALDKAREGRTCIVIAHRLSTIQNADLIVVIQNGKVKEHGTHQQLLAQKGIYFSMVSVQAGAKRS
T1 sequence (P21447 whole entry): as above

Row | Basal activity (Mouse mdr1a Pgp) | SMILES | melting temperature Tm of Pgp (Pgp)
1 |  | CC(C)CCC[C@@H](C)[C@H]1CC[C@H]2[C@@H]3CC=C4C[C@@H](OC(=O)CCC(=O)O)CC[C@]4(C)[C@H]3CC[C@]12C [CHS, cholesteryl hemisuccinate] | 52 ºC
2 | 0.05 µmol/min/mg | CCCCCCCC/C=C\CCCCCCCC(=O)O[C@H](COC(=O)CCCCCCCCCCCCCCC)COP(=O)([O-])OCC[N+](C)(C)C [POPC only, 1-palmitoyl-2-oleoyl-sn-glycero-3-phosphocholine] | 
